Earlier results, collected in US20080213433A1, “Fluid compositions comprising polyphenols and methods for making and packaging the same” (priority 2006, published 2008).

Columns and labels:
[1] = β-glucosidases in the human intestines hydrolyze piceid and release free trans-resveratrol
[2] = target: T1, SIRT1 (Homo sapiens, UniProt Q96EB6); conditions: sirtuin enzyme; cis-isomer compared to trans-resveratrol
T1 sequence (Q96EB6 1-747): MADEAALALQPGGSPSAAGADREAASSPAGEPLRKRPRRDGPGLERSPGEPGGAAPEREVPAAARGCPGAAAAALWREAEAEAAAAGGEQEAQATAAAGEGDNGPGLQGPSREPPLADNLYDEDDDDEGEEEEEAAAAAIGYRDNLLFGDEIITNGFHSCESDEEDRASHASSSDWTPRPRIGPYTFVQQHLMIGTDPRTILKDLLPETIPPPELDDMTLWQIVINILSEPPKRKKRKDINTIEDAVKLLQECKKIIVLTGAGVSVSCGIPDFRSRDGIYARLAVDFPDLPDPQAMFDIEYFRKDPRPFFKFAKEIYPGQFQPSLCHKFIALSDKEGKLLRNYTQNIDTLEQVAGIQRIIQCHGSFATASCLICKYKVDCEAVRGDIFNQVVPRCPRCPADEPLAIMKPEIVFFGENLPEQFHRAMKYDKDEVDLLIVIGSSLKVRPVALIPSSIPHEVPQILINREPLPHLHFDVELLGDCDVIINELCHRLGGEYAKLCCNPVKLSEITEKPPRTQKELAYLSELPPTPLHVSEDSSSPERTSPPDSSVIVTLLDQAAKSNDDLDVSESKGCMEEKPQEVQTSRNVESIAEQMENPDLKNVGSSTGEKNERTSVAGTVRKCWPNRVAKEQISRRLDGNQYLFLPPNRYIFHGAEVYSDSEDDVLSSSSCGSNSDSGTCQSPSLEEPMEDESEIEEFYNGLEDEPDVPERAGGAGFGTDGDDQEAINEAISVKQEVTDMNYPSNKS

Row | SMILES | bioavailability of trans-resveratrol derived from the β-glucosidic form vs the free form in solution [1] | stimulation / activation of SIRT1 [2]
1 | OCC1OC(Oc2cc(O)cc(/C=C/c3ccc(O)cc3)c2)C(O)C(O)C1O (stereo not drawn) [piceid, 2-[3-hydroxy-5-[(E)-2-(4-hydroxyphenyl)ethenyl]phenoxy]-6-(hydroxymethyl)oxane-3,4,5-triol] | equivalent | –
2 | Oc1ccc(/C=C/c2cc(O)cc(O)c2)cc1 [Trans-resveratrol] | – | stimulate
3 | Oc1ccc(/C=C\c2cc(O)cc(O)c2)cc1 [Cis-resveratrol] | – | considerably less efficacy
